The values that follow come from patent publication US20030162165A1, “Chemical signal enhancement of dynamic intensity-based intracellular protein-and fluorophore-based redistribution assays for drug-screening” (priority 2003, published 2003).

“Also recorded” adds a separate entry of the source. Bounds are passed on as bounds.

For data set [1], the system named is human isoform of PKC (protein kinase C) beta 1 tagged with GFP. The data set can be described thus: Type 1 redistribution assay (PKC beta 1-GFP, ATP stimulus) on FLIPR. The format is cell-based. As to conditions: for increase in the measurable response, type 1 redistribution: summary, enhancer added to extracellular medium, FLIPR. The protocol: (§1) The CHO (Chinese hamster ovary) cell line stably expressing the human isoform of PKC (protein kinase C) beta 1 tagged with GFP (green fluorescent protein)in its C-terminal end and the human RACK1 (receptor for activated C kinase) was cultured in 96-well microtiter plates (Packard View-Plate). After 20 min preincubation in KRW (experimental buffer; A modified Krebs-Ringer buffer containing (in mM): NaCl 140, KCl 3.6, NaH2PO4 0.5, MgSO4 0.5, NaHCO3 2.0, CaCl2 1.5 and HEPES 10, D-glucose 5 (pH 7.4, titrated with 1M NaOH)) the cell plate was supplemented with a concentration gradient of Trypan Blue at 0, 10, 50, 100 and 200 μM (4 wells per compound and concentration) and placed in the FLIPR™. Subsequently the cells were stimulated in the FLIPR™ with 100 μM ATP. This gives a Type 1 redistribution response (see FIG. 6) in these cells where the redistribution can be quantified as a reduction in fluorescence intensity, as PKC beta 1 moves from the cytosol to the membrane, during the first 1-2 minutes of stimulation. […] All data were corrected for background by subtraction of a background trace based on 16 individual background traces and normalized to 1 at the point of addition of 100 μM ATP.
as §1, with “Acid Red 88” for “Trypan Blue”
The CHO (Chinese hamster ovary) cell line stably expressing the human isoform of PKC (protein kinase C) beta 1 tagged with GFP (green fluorescent protein) in its C-terminal end and the human RACK1 (receptor for activated C kinase) was cultured in 96-well microtiter plates (Packard View-Plate). After 20 min preincubation in KRW (experimental buffer; A modified Krebs-Ringer buffer containing (in mM): NaCl 140, KCl 3.6, NaH2PO4 0.5, MgSO4 0.5, NaHCO3 2.0, CaCl2 1.5 and HEPES 10, D-glucose 5 (pH 7.4, titrated with 1M NaOH)) the cell plate was supplemented with a concentration gradient of Trypan Blue, Acid Red 88 and Orange G at 0, 10, 50, 100 and 200 μM (4 wells per compound and concentration) and placed in the FLIPR™. Subsequently the cells were stimulated in the FLIPR™ with 100 μM ATP. This gives a Type 1 redistribution response (see FIG. 6) in these cells where the redistribution can be quantified as a reduction in fluorescence intensity, as PKC beta 1 moves from the cytosol to the membrane, during the first 1-2 minutes of stimulation. All data were corrected for background by subtraction of a background trace based on 16 individual background traces and normalized to 1 at the point of addition of 100 μM ATP. The data points represent the average of four determinations+SD. […]

The test system of data set [2] is PH-domain (pleckstrin homology) of the human isoform of PLC (phospho-lipase C) delta tagged with GFP. Description: Type 3 redistribution assay (PLC delta PH-domain-GFP, ATP stimulus) on FLIPR. The format is cell-based. As to conditions: for increase in the measurable response, type 3 redistribution: summary, enhancer added to extracellular medium, FLIPR. The procedure:
The CHO (Chinese hamster ovary) cell line stably expressing the PH-domain (pleckstrin homology) of the human isoform of PLC (phospho-lipase C) delta tagged with GFP (green fluorescent protein) in its C-terminal end was cultured in 96-well microtiter plates (Packard View-Plate). After 20 min preincubation in KRW (experimental buffer; A modified Krebs-Ringer buffer containing (in mM): NaCl 140, KCl 3.6, NaH2PO4 0.5, MgSO4 0.5, NaHCO3 2.0, CaCl2 1.5 and HEPES 10, D-glucose 5 (pH 7.4, titrated with 1M NaOH)) the cell plate was supplemented with 100 μM Trypan Blue in one half and 10 μM Acid Red 88 in the other half of the wells and placed in the FLIPR™. Subsequently the cells were stimulated in the FLIPR™ with a range of ATP concentrations starting with 300 μM and lower by a threefold reduction of concentration in each dilution step. This gives a Type 3 redistribution response (see FIG. 6) in these cells where the redistribution can be quantified as an increase in fluorescence intensity, as the PH-domain of PLC delta 1 moves from the membrane to the cytosol, during the first 1-2 minutes of stimulation. FIG. 4 summarizes this experiment. All data were corrected for background by subtraction of a background trace based on 4 individual background traces. The data points represent the average of four determinations+SD. The data were extracted as the maximal change during the first minute of stimulation (Smax-Smin).
The CHO (Chinese hamster ovary) cell line stably expressing the PH-domain (pleckstrin homology) of the human isoform of PLC (phospho-lipase C) delta tagged with GFP (green fluorescent protein) in its C-terminal end was cultured in 96-well microtiter plates (Packard View-Plate). After 20 min preincubation in KRW (experimental buffer; A modified Krebs-Ringer buffer containing (in mM): NaCl 140, KCl 3.6, NaH2PO4 0.5, MgSO4 0.5, NaHCO3 2.0, CaCl2 1.5 and HEPES 10, D-glucose 5 (pH 7.4, titrated with 1M NaOH)) the cell plate was supplemented with 100 μM Trypan Blue in one half and 20 μM Acid Red 88 in the other half of the wells and placed in the FLIPR. Subsequently the cells were stimulated in the FLIPR with 100 μM ATP. This gives a Type 3 redistribution response (see FIG. 6) in these cells where the redistribution can be quantified as an increase in fluorescence intensity, as the PH-domain of PLC delta 1 moves from the membrane to the cytosol, during the first 1-2 minutes of stimulation. FIG. 4 summarizes this experiment. It can be seen that Acid Red 88 in this case maximally gives about a 6-7-fold increase in signal over the one obtained with Trypan Blue.

In data set [3] the test system is mouse cPKA (catalytic subunit of protein kinase A) tagged with GFP. The data set can be described thus: Type 2 redistribution assay (cPKA-GFP, Forskolin stimulus) on FLIPR. The format is cell-based. As to conditions: for effect on type 2 redistribution response: CHO cells, concentration gradient of dye. The protocol: The CHO (Chinese hamster ovary) cell line stably expressing the mouse cPKA (catalytic subunit of protein kinase A) tagged with GFP (green fluorescent protein) in its N-terminal end was cultured in 96-well microtiter plates (Packard View-Plate). After 20 min preincubation in KRW (experimental buffer; A modified Krebs-Ringer buffer containing (in mM): NaCl 140, KCl 3.6, NaH2PO4 0.5, MgSO4 0.5, NaHCO3 2.0, CaCl2 1.5 and HEPES 10, D-glucose 5 (pH 7.4, titrated with 1M NaOH)) the cell plate was supplemented with a concentration gradient of Trypan Blue and Acid Red 88 (4 wells per compound and concentration) and placed in the FLIPR™. Subsequently the cells were stimulated in the FLIPR™ with 10 μM Forskolin. This gives a Type 2 redistribution response (see FIG. 6) in these cells where the redistribution can be quantified as an increase in fluorescence intensity, as cPKA moves from aggregates in the cytosol to a dispersed form in the cytosol, during the first 2-5 minutes of stimulation. All data were corrected for background by subtraction of a background trace based on 16 individual background traces and normalized to 1 at the point of addition of 10 μM Forskolin. The data points represent the average of four determinations+SD. The data were extracted as the maximal change in fluorescence during the first five minutes of stimulation. Negative values depict a decrease In fluorescence during the response and positive values and Increase.
The CHO (Chinese hamster ovary) cell line stably expressing the mouse cPKA (catalytic subunit of protein kinase A) tagged with GFP (green fluorescent protein) in its N-terminal end was cultured in 96-well microtiter plates (Packard View-Plate). After 20 min preincubation in KRW (experimental buffer; A modified Krebs-Ringer buffer containing (in mM): NaCl 140, KCl 3.6, NaH2PO4 0.5, MgSO4 0.5, NaHCO3 2.0, CaCl2 1.5 and HEPES 10, D-glucose 5 (pH 7.4, titrated with 1M NaOH)) the cell plate was supplemented with a concentration gradient of Trypan Blue and Acid Red 88 at 0, 10, 50, 100 and 200 μM during the experimental fluorescence recording (4 wells per compound and concentration) in the FLIPR™. […] The data were extracted as the absolute fluorescence change 30 seconds after addition of the two compounds.
The CHO (Chinese hamster ovary) cell line stably expressing the mouse cPKA (catalytic subunit of protein kinase A) tagged with GFP (green fluorescent protein) in its N-terminal end was cultured in 96-well microtiter plates (Packard View-Plate). […] This gives a Type 2 redistribution response (see FIG. 6) in these cells where the redistribution can be quantified as an increase in fluorescence intensity, as cPKA moves from aggregates in the cytosol to a dispersed form in the cytosol, during the first 2-5 minutes of stimulation.

The conditions of data set [4]: cited from earlier work; for Molar Absorptivity 488 nm: at 488 nm; for Molar Absorptivity 488 nm / Molar Absorptivity 500-550 nm: estimated from published spectra; for Molar Absorptivity 500-550 nm: average over 500-550 nm; for Wavelength of maxiumum absorbance: published spectra.
Data set [5] is described as follows: Solubility in water. The format is physicochemical.

On to `O=S(=O)([O-])c1ccc(N=Nc2c(O)ccc3ccccc23)c2ccccc12.[Na+]` [Acid Red 88], for which the “maximal enhancement of the response compared to the control” value in data set [1] (at 50 μM enhancer, CHO cells, 100 μM ATP) is reported as “about 7 fold”. Besides, the “effect on overall basal fluorescence, type 1 redistribution assay” value in data set [1] (concentration dependent, 0-200 μM, no stimulus (FIG. 7)) is “reduces overall basal fluorescence”. The “increase in the measurable response, type 1 redistribution” value in data set [1] is given as 6-7 fold. The “increase in signal over the one obtained with Trypan Blue, type 3 redistribution” value in data set [2] (maximal, 20 μM Acid Red 88 vs 100 μM Trypan Blue, CHO cells, ATP) is 6-7 fold. The “increase in the measurable response, type 3 redistribution” value in data set [2] is recorded as 7-10 fold. Also, the “effect on overall basal fluorescence, type 2 redistribution assay” value in data set [3] (0-200 μM, no stimulus (FIG. 10)) is given as “did not reduce the overall basal fluorescence”. Also, the “effect on type 2 redistribution response” value in data set [3] (10 μM Forskolin) is reported as “completely abolished the response at the lowest concentration”. Moreover, in data set [3] (above 10 μM, 10 μM Forskolin), the “effect on type 2 redistribution response at higher concentrations” value is “reversed it to a fluorescence decrease”. Moreover, in data set [4], the “Molar Absorptivity 488 nm” value is recorded as 16986 mol^−1-cm^−1, the “Molar Absorptivity 500-550 nm” value is recorded as 14964 mol^−1-cm^−1 and the “Wavelength of maxiumum absorbance” value is on record as 505 nm.
As for `O=S(=O)(O)c1cc(S(=O)(=O)O)c2c(/N=N/c3ccccc3)c(O)ccc2c1` [Orange G], in data set [1] (CHO cells, 100 μM ATP, 0-200 μM dye), the “enhancing effect on type 1 redistribution response” value is “enhancing properties up to a concentration of 100 μM; also recorded: inferior to Trypan Blue and much inferior to Acid Red 88”. Further, in data set [4], the “Molar Absorptivity 488 nm” value is 13571 mol^−1-cm^−1, the “Molar Absorptivity 500-550 nm” value is listed as 4524 mol^−1-cm^−1 and the “Wavelength of maxiumum absorbance” value is reported as 475 nm.
For `Cc1cc(-c2ccc(/N=N/c3c(S(=O)(=O)O)cc4cc(S(=O)(=O)O)cc(N)c4c3O)c(C)c2)ccc1/N=N/c1c(S(=O)(=O)O)cc2cc(S(=O)(=O)O)cc(N)c2c1O` [Trypan Blue], the “maximal enhancement of the response compared to the control” value in data set [1] (at 200 μM enhancer, CHO cells, 100 μM ATP) is recorded as “about 3 fold”. Also, the “increase in the measurable response, type 1 redistribution” value in data set [1] was 2-3 fold. Also, the “effect on type 3 redistribution response” value in data set [2] (100 μM Trypan Blue, response barely detectable without the compound) is “clearly give a detectable signal”. Besides, the “increase in the measurable response, type 3 redistribution” value in data set [2] is reported as 1-3 fold. The “effect on type 2 redistribution response” value in data set [3] (10 μM Forskolin) was “reduced it somewhat at higher concentrations; also recorded: no enhancing effect”. The solubility in data set [5] is under 100 µg/mL. In data set [4], the “Molar Absorptivity 488 nm” value was 16014 mol^−1-cm^−1, the “Molar Absorptivity 500-550 nm” value is 34556 mol^−1-cm^−1 and the “Wavelength of maxiumum absorbance” value is listed as 607 nm.

Broadly, the solubility is how much of the substance goes into solution per volume. Higher therefore signals much dissolved substance.
